The kinase profiling compilation of Christmann-Franck et al. (2016)

How the values were obtained:
Assay in all cases: radiometric filter-binding kinase assay, Kinase HotSpot
Conditions in all cases: compound 0.5 µM; ATP 10 µM
AURKB (human) = AURKB (human) (UniProt Q96GD4)
AXL (human) = AXL (human) (UniProt P30530)
CAMK1G (human) = CAMK1G (human) (UniProt Q96NX5)
CAMK2G (human) = CAMK2G (human) (UniProt Q13555)
CHEK1 (human) = CHEK1 (human) (UniProt O14757)
CHEK2 (human) = CHEK2 (human) (UniProt O96017)
CLK3 (human) = CLK3 (human) (UniProt P49761)
CSNK1G2 (human) = CSNK1G2 (human) (UniProt P78368)
DAPK2 (human) = DAPK2 (human) (UniProt Q9UIK4)
FLT3 (human) = FLT3 (human) (UniProt P36888)
FRK (human) = FRK (human) (UniProt P42685)
Sequence of FRK (human) (P42685 whole entry, looked up): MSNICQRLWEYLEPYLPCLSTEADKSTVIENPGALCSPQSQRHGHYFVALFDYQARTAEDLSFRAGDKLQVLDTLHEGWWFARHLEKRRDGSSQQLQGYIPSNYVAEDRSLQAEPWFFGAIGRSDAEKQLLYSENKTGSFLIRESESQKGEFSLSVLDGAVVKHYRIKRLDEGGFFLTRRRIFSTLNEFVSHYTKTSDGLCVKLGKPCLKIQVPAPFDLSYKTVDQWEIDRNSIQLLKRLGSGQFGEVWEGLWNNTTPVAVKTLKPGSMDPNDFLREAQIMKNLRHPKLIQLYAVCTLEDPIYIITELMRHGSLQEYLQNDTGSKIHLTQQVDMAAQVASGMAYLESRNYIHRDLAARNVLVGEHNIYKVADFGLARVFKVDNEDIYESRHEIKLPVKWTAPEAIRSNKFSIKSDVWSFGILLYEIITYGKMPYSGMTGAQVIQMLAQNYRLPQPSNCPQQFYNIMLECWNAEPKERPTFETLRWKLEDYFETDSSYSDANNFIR

GSK3A (human) = GSK3A (human) (UniProt P49840)
HIPK3 (human) = HIPK3 (human) (UniProt Q9H422)
IGF1R (human) = IGF1R (human) (UniProt P08069)
IKBKB (human) = IKBKB (human) (UniProt O14920)
[1] = target: JAK1 JH1 catalytic (human) (UniProt P23458)
MAP3K2 (human) = MAP3K2 (human) (UniProt Q9Y2U5)
MAP3K5 (human) = MAP3K5 (human) (UniProt Q99683)
MAP3K7 TAB1 (human) = MAP3K7 TAB1 (human) (UniProt O43318+Q15750)
Sequence of MAP3K7 TAB1 (human) (O43318 whole entry, looked up): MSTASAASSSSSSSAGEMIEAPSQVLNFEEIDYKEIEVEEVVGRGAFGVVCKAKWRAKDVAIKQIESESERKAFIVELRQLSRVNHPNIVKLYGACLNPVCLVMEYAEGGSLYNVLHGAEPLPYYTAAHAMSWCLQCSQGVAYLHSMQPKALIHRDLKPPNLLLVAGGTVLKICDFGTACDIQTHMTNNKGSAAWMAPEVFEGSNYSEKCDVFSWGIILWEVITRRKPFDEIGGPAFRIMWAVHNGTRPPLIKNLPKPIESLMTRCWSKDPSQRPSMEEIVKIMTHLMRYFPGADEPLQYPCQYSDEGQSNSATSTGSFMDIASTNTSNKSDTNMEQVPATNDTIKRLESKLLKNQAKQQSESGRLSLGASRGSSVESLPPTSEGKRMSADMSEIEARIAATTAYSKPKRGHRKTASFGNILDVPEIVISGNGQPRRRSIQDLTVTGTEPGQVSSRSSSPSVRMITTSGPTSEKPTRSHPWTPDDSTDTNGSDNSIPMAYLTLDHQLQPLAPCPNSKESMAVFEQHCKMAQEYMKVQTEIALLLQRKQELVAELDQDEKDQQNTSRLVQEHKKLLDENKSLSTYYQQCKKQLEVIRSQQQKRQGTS
Sequence of MAP3K7 TAB1 (human) (Q15750 whole entry, looked up): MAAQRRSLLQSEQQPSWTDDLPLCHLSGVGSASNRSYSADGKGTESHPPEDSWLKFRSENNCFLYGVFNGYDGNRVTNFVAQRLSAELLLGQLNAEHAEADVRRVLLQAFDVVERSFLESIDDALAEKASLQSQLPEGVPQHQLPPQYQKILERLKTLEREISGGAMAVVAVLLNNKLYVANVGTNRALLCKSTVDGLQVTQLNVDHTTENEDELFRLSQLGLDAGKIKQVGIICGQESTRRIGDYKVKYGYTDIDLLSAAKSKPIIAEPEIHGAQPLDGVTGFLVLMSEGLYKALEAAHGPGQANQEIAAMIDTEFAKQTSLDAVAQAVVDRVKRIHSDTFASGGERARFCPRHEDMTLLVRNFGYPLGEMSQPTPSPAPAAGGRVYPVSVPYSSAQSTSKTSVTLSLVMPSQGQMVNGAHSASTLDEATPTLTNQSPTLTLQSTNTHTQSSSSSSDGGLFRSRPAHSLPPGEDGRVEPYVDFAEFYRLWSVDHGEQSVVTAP

MAP4K2 (human) = MAP4K2 (human) (UniProt Q12851)
MAPK10 (human) = MAPK10 (human) (UniProt P53779)
Sequence of MAPK10 (human) (P53779 whole entry, looked up): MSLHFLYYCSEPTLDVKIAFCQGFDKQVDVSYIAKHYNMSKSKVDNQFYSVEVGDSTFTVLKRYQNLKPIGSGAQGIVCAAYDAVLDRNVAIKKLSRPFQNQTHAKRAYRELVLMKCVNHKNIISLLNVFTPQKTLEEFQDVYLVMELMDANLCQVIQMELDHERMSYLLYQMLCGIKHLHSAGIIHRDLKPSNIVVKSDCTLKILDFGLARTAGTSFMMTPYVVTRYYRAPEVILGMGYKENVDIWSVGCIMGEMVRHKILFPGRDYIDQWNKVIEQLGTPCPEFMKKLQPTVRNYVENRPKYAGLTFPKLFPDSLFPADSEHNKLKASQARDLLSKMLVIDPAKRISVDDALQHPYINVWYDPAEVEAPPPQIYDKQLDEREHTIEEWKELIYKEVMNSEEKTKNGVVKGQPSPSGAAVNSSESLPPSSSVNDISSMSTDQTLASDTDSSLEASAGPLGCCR

MAPKAPK3 (human) = MAPKAPK3 (human) (UniProt Q16644)
MELK (human) = MELK (human) (UniProt Q14680)
NEK11 (human) = NEK11 (human) (UniProt Q8NG66)
NTRK2 (human) = NTRK2 (human) (UniProt Q16620)
NUAK1 (human) = NUAK1 (human) (UniProt O60285)
PAK3 (human) = PAK3 (human) (UniProt O75914)
PNCK (human) = PNCK (human) (UniProt Q6P2M8)
PRKCZ (human) = PRKCZ (human) (UniProt Q05513)
RIPK2 (human) = RIPK2 (human) (UniProt O43353)
SGK2 (human) = SGK2 (human) (UniProt Q9HBY8)
SIK2 (human) = SIK2 (human) (UniProt Q9H0K1)
SLK (human) = SLK (human) (UniProt Q9H2G2)
SRMS (human) = SRMS (human) (UniProt Q9H3Y6)
STK16 (human) = STK16 (human) (UniProt O75716)
SYK (human) = SYK (human) (UniProt P43405)
TAOK1 (human) = TAOK1 (human) (UniProt Q7L7X3)
TBK1 (human) = TBK1 (human) (UniProt Q9UHD2)
Sequence of TBK1 (human) (Q9UHD2 whole entry, looked up): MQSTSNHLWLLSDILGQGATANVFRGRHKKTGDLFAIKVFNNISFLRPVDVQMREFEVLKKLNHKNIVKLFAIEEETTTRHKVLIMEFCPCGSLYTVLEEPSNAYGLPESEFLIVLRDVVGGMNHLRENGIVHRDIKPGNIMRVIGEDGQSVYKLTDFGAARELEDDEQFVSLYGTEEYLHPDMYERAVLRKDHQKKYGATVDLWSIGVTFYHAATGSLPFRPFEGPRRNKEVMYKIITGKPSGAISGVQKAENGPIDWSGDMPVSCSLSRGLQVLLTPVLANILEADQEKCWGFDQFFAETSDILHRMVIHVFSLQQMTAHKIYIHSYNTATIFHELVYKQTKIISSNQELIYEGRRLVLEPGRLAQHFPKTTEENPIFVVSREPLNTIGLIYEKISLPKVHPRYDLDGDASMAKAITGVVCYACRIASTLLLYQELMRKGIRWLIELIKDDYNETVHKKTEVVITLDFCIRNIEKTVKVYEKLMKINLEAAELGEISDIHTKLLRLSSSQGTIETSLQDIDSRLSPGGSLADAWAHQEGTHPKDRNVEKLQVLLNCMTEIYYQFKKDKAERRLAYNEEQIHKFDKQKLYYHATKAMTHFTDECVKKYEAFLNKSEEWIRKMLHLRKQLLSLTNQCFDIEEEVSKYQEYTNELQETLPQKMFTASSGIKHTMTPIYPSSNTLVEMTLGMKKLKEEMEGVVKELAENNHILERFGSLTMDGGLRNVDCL

TGFBR2 (human) = TGFBR2 (human) (UniProt P37173)
Sequence of TGFBR2 (human) (P37173 whole entry, looked up): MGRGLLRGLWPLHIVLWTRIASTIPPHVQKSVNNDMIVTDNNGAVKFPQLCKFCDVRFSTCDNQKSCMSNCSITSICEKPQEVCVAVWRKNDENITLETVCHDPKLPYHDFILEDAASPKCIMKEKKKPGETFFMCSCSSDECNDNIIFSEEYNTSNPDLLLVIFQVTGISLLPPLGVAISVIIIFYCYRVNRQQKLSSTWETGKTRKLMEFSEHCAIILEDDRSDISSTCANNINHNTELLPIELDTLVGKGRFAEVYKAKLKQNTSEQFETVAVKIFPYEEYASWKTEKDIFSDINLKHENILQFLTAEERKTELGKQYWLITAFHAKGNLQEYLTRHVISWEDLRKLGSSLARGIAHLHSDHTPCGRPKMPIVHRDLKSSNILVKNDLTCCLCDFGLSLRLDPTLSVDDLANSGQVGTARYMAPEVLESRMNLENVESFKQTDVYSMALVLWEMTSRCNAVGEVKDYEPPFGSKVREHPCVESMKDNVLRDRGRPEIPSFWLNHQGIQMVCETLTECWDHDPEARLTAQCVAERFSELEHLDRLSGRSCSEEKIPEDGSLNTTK

TSSK1B (human) = TSSK1B (human) (UniProt Q9BXA7)
Sequence of TSSK1B (human) (Q9BXA7 whole entry, looked up): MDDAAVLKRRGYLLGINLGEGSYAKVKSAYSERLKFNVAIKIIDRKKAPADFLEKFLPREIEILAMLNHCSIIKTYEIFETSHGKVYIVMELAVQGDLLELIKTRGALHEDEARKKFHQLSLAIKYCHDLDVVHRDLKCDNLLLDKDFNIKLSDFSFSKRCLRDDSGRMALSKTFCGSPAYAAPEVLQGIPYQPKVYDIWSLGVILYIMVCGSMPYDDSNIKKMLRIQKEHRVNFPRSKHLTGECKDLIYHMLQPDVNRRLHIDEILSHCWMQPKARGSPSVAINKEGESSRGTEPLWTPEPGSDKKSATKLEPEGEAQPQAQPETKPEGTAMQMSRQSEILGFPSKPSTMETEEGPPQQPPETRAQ

VRK1 (human) = VRK1 (human) (UniProt Q99986)
EPHB4 (human) = EPHB4 (human) (UniProt P54760)

Sequence of AURKB (human) (Q96GD4 whole entry, looked up): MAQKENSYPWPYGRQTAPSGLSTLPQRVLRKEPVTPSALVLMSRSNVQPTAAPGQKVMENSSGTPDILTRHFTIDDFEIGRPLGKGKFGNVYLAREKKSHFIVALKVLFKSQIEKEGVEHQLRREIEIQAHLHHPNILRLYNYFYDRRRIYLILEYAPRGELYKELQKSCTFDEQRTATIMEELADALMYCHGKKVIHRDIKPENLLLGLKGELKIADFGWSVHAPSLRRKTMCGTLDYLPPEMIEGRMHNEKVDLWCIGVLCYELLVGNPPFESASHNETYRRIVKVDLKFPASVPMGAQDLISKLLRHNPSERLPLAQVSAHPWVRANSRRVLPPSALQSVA
Sequence of AXL (human) (P30530 whole entry, looked up): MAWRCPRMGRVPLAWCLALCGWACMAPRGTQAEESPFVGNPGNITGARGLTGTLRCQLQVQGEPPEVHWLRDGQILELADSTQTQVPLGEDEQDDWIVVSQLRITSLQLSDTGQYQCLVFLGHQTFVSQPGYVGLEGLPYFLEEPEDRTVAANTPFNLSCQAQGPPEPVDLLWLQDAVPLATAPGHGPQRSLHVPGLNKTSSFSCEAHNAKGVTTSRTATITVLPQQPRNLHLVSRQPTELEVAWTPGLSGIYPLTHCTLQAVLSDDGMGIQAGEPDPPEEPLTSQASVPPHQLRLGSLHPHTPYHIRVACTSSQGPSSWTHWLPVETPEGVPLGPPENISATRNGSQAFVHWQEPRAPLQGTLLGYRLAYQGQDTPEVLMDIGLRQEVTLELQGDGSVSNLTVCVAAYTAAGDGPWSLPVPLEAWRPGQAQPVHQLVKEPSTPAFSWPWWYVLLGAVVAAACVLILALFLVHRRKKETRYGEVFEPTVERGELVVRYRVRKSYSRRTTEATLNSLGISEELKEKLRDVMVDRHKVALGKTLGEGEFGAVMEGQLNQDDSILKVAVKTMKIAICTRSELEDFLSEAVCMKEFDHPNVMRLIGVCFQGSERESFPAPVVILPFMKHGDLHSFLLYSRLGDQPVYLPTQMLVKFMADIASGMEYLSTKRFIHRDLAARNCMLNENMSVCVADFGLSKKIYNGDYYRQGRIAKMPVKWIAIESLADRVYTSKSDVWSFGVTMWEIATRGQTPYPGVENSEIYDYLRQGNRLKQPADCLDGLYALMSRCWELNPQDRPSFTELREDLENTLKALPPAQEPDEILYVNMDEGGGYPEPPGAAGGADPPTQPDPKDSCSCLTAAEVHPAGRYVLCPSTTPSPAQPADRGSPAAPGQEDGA

Cn1cnc2cc3c(Nc4cccc(Br)c4)ncnc3cc21 was tested. Which residual activity (AURKB (human)) did it give?
Its residual activity is 78.2%.

What about the residual activity (AXL (human)) of the same molecule?
The residual activity was 101%.

And the residual activity (CAMK1G (human))?
Its residual activity is 94.2%.

What about the residual activity (CAMK2G (human)) of the same molecule?
Its residual activity is 104%.

And the residual activity (CHEK1 (human))?
The residual activity was 113%.

And the residual activity (CHEK2 (human))?
The residual activity was 101%.

And the residual activity (CLK3 (human))?
The residual activity was 100%.

And the residual activity (CSNK1G2 (human))?
Its residual activity is 89.2%.

And the residual activity (DAPK2 (human))?
The residual activity was 92.5%.

What about the residual activity (FLT3 (human)) of the same molecule?
The residual activity was 33.4%.

What about the residual activity (FRK (human)) of the same molecule?
The residual activity was 93.6%.

What about the residual activity (GSK3A (human)) of the same molecule?
Its residual activity is 100%.

What about the residual activity (HIPK3 (human)) of the same molecule?
Its residual activity is 107%.

And the residual activity (IGF1R (human))?
Its residual activity is 102%.

And the residual activity (IKBKB (human))?
The residual activity was 104%.

What about the residual activity [1] of the same molecule?
Its residual activity is 96.4%.

What about the residual activity (MAP3K2 (human)) of the same molecule?
The residual activity was 97.6%.

And the residual activity (MAP3K5 (human))?
The residual activity was 110%.

What about the residual activity (MAP3K7 TAB1 (human)) of the same molecule?
The residual activity was 98.6%.

And the residual activity (MAP4K2 (human))?
Its residual activity is 90.4%.

And the residual activity (MAPK10 (human))?
Its residual activity is 104%.

And the residual activity (MAPKAPK3 (human))?
The residual activity was 94.4%.

What about the residual activity (MELK (human)) of the same molecule?
Its residual activity is 89%.

What about the residual activity (NEK11 (human)) of the same molecule?
Its residual activity is 101%.

And the residual activity (NTRK2 (human))?
Its residual activity is 98.9%.

And the residual activity (NUAK1 (human))?
The residual activity was 90.5%.

And the residual activity (PAK3 (human))?
Its residual activity is 98.5%.

And the residual activity (PNCK (human))?
The residual activity was 101%.

What about the residual activity (PRKCZ (human)) of the same molecule?
Its residual activity is 102%.

And the residual activity (RIPK2 (human))?
Its residual activity is 35.6%.

What about the residual activity (SGK2 (human)) of the same molecule?
The residual activity was 104%.

And the residual activity (SIK2 (human))?
The residual activity was 101%.

What about the residual activity (SLK (human)) of the same molecule?
Its residual activity is 67.8%.

And the residual activity (SRMS (human))?
Its residual activity is 84%.

And the residual activity (STK16 (human))?
Its residual activity is 96.3%.

What about the residual activity (SYK (human)) of the same molecule?
The residual activity was 98.5%.

What about the residual activity (TAOK1 (human)) of the same molecule?
Its residual activity is 92.4%.

And the residual activity (TBK1 (human))?
The residual activity was 87.7%.

What about the residual activity (TGFBR2 (human)) of the same molecule?
The residual activity was 98.9%.

And the residual activity (TSSK1B (human))?
The residual activity was 104%.

And the residual activity (VRK1 (human))?
Its residual activity is 100%.

Which residual activity (AURKB (human)) does the source give for COc1ccc(CNC(=O)Nc2ncc([N+](=O)[O-])s2)cc1 here?
Its residual activity is 97.1%.

And the residual activity (AXL (human))?
Its residual activity is 92%.

What about the residual activity (CAMK1G (human)) of the same molecule?
Its residual activity is 99.6%.

And the residual activity (CAMK2G (human))?
The residual activity was 102%.

What about the residual activity (CHEK1 (human)) of the same molecule?
Its residual activity is 98%.

What about the residual activity (CHEK2 (human)) of the same molecule?
The residual activity was 99.2%.

And the residual activity (CLK3 (human))?
The residual activity was 93%.

What about the residual activity (CSNK1G2 (human)) of the same molecule?
Its residual activity is 100%.

And the residual activity (DAPK2 (human))?
Its residual activity is 93.3%.

What about the residual activity (EPHB4 (human)) of the same molecule?
Its residual activity is 100%.

What about the residual activity (FLT3 (human)) of the same molecule?
Its residual activity is 98.9%.

And the residual activity (FRK (human))?
Its residual activity is 97.2%.

What about the residual activity (GSK3A (human)) of the same molecule?
The residual activity was 13.5%.

And the residual activity (HIPK3 (human))?
The residual activity was 91.9%.

And the residual activity (IGF1R (human))?
The residual activity was 101%.

What about the residual activity (IKBKB (human)) of the same molecule?
Its residual activity is 94.9%.

What about the residual activity [1] of the same molecule?
Its residual activity is 94.2%.

What about the residual activity (MAP3K2 (human)) of the same molecule?
The residual activity was 94.1%.

What about the residual activity (MAP3K5 (human)) of the same molecule?
Its residual activity is 87.8%.

What about the residual activity (MAP3K7 TAB1 (human)) of the same molecule?
Its residual activity is 99.3%.

What about the residual activity (MAP4K2 (human)) of the same molecule?
Its residual activity is 113%.

And the residual activity (MAPK10 (human))?
The residual activity was 96.1%.

And the residual activity (MAPKAPK3 (human))?
The residual activity was 103%.

And the residual activity (NEK11 (human))?
Its residual activity is 104%.

And the residual activity (NTRK2 (human))?
The residual activity was 85.6%.

And the residual activity (NUAK1 (human))?
The residual activity was 99.7%.

What about the residual activity (PAK3 (human)) of the same molecule?
The residual activity was 94.6%.

What about the residual activity (PNCK (human)) of the same molecule?
Its residual activity is 99.3%.

What about the residual activity (PRKCZ (human)) of the same molecule?
The residual activity was 96.3%.

And the residual activity (RIPK2 (human))?
Its residual activity is 82.8%.

What about the residual activity (SGK2 (human)) of the same molecule?
The residual activity was 99.5%.

What about the residual activity (SIK2 (human)) of the same molecule?
Its residual activity is 89.4%.

What about the residual activity (SLK (human)) of the same molecule?
Its residual activity is 88.9%.

And the residual activity (SRMS (human))?
The residual activity was 93.3%.

What about the residual activity (STK16 (human)) of the same molecule?
Its residual activity is 99.9%.

And the residual activity (SYK (human))?
The residual activity was 98.6%.

And the residual activity (TAOK1 (human))?
The residual activity was 101%.

And the residual activity (TBK1 (human))?
Its residual activity is 104%.

What about the residual activity (TGFBR2 (human)) of the same molecule?
Its residual activity is 117%.

And the residual activity (TSSK1B (human))?
The residual activity was 106%.

And the residual activity (VRK1 (human))?
Its residual activity is 95%.

Which results are given for CN([C@@H](Cc1ccc(OS(=O)(=O)c2cccc3cnccc23)cc1)C(=O)N1CCN(c2ccccc2)CC1)S(=O)(=O)c1cccc2cnccc12?
residual activity (AURKB (human)): 104%; residual activity (AXL (human)): 103%; residual activity (CAMK1G (human)): 93.6%; residual activity (CHEK1 (human)): 99.5%; residual activity (CHEK2 (human)): 101%; residual activity (CLK3 (human)): 103%; residual activity (CSNK1G2 (human)): 100%; residual activity (DAPK2 (human)): 99.7%; residual activity (FLT3 (human)): 103%; residual activity (FRK (human)): 101%; residual activity (GSK3A (human)): 99.8%; residual activity (HIPK3 (human)): 110%; residual activity (IGF1R (human)): 105%; residual activity (IKBKB (human)): 96.7%; residual activity [1]: 108%; residual activity (MAP3K2 (human)): 98.9%; residual activity (MAP3K5 (human)): 99.2%; residual activity (MAP3K7 TAB1 (human)): 93.4%; residual activity (MAP4K2 (human)): 89.5%; residual activity (MAPK10 (human)): 88.2%; residual activity (MAPKAPK3 (human)): 101%; residual activity (NEK11 (human)): 103%; residual activity (NTRK2 (human)): 103%; residual activity (NUAK1 (human)): 97.5%; residual activity (PAK3 (human)): 102%; residual activity (PNCK (human)): 99.7%; residual activity (PRKCZ (human)): 101%; residual activity (RIPK2 (human)): 89.4%; residual activity (SGK2 (human)): 100%; residual activity (SIK2 (human)): 108%; residual activity (SLK (human)): 101%; residual activity (SRMS (human)): 103%; residual activity (STK16 (human)): 104%; residual activity (SYK (human)): 98.7%; residual activity (TAOK1 (human)): 98.7%; residual activity (TBK1 (human)): 101%; residual activity (TGFBR2 (human)): 101%; residual activity (TSSK1B (human)): 95.4%; residual activity (VRK1 (human)): 92.1%
